# According to the supplement of paper PMC10307832:
# Key:
# Assay in all cases: relative viability (nuclei count vs DMSO), 5 days (fraction); higher = more cells survive
# Alpelisib + AZD7762 = compound: Cc1nc(NC(=O)N2CCC[C@H]2C(N)=O)sc1-c1ccnc(C(C)(C)C(F)(F)F)c1 [Alpelisib] + NC(=O)Nc1cc(-c2cccc(F)c2)sc1C(=O)N[C@H]1CCCNC1 [AZD7762] (partner 0.2 µM)
# In short: (§1)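 Nuclei were stained with Hoechst during a one-step fixation (final 0.05% Triton X-100, 1% formaldehyde, 1 ug/ml Hoechst) carried out 5 days after dosing, then counted on 4× images. The cells, lung cancer lines in 1536-well plates, had been dosed by pin tool the day after seeding with one drug alone or a fixed anchor-drug dose plus five library-drug doses (not always all listed) in √10 steps. Relative viability is the nuclei count in treated wells divided by that in vehicle wells, and each value is the median of duplicate plates.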
# Vemurafenib + Lapatinib = compound: CCCS(=O)(=O)Nc1ccc(F)c(C(=O)c2c[nH]c3ncc(-c4ccc(Cl)cc4)cc23)c1F [Vemurafenib] + CS(=O)(=O)CCNCc1ccc(-c2ccc3ncnc(Nc4ccc(OCc5cccc(F)c5)c(Cl)c4)c3c2)o1 [Lapatinib] (partner 2 µM)
# In short: as §1
# OSI-027 + Tozasertib = compound: COc1cccc2cc(-c3nc([C@H]4CC[C@H](C(=O)O)CC4)n4ncnc(N)c34)[nH]c12 [OSI-027] + Cc1cc(Nc2cc(N3CCN(C)CC3)nc(Sc3ccc(NC(=O)C4CC4)cc3)n2)n[nH]1 [Tozasertib] (partner 0.1 µM)
# In short: as §1
# Vemurafenib + Alpelisib = compound: CCCS(=O)(=O)Nc1ccc(F)c(C(=O)c2c[nH]c3ncc(-c4ccc(Cl)cc4)cc23)c1F [Vemurafenib] + Cc1nc(NC(=O)N2CCC[C@H]2C(N)=O)sc1-c1ccnc(C(C)(C)C(F)(F)F)c1 [Alpelisib] (partner 2 µM)
# In short: as §1
Cell Line,relative viability (Alpelisib + AZD7762; first compound 0.04 µM),relative viability (Alpelisib + AZD7762; first compound 0.1265 µM),relative viability (Alpelisib + AZD7762; first compound 0.4 µM),relative viability (Alpelisib + AZD7762; first compound 1.265 µM),relative viability (Alpelisib + AZD7762; first compound 4 µM),relative viability (Vemurafenib + Lapatinib; first compound 0.03162 µM),relative viability (Vemurafenib + Lapatinib; first compound 0.3162 µM),relative viability (Vemurafenib + Lapatinib; first compound 1 µM),relative viability (OSI-027 + Tozasertib; first compound 0.01 µM),relative viability (OSI-027 + Tozasertib; first compound 0.03162 µM),relative viability (OSI-027 + Tozasertib; first compound 0.1 µM),relative viability (OSI-027 + Tozasertib; first compound 0.3162 µM),relative viability (OSI-027 + Tozasertib; first compound 1 µM),relative viability (Vemurafenib + Alpelisib; first compound 0.03162 µM),relative viability (Vemurafenib + Alpelisib; first compound 0.3162 µM),relative viability (Vemurafenib + Alpelisib; first compound 1 µM),relative viability (Vemurafenib + Lapatinib; first compound 0.1 µM),relative viability (Vemurafenib + Alpelisib; first compound 0.1 µM)
PC-3 [JPC-3],0.808,0.755,0.781,0.601,0.516,0.464,0.626,0.445,1.03,0.808,0.844,0.841,0.351,0.985,1.11,1.07,–,–
NCI-H1651,0.458,0.442,0.535,0.536,0.359,0.853,0.756,0.824,0.669,0.642,0.801,0.692,0.591,0.903,0.896,0.909,0.772,0.831
NCI-H596,0.895,1.05,1.03,0.725,0.472,1.04,0.874,1.07,0.999,0.804,0.859,0.811,0.47,0.526,0.475,0.42,1.03,0.48
HARA,0.364,0.334,0.398,0.249,0.442,0.745,0.782,0.625,0.472,0.099,0.115,0.0843,0.106,0.801,0.879,0.823,–,–
NCI-H727,0.472,0.567,0.625,0.673,0.555,0.653,1.16,0.886,0.584,0.65,0.716,0.725,0.456,0.519,0.849,0.574,0.772,0.49
NCI-H1993,0.722,0.656,0.695,0.539,0.472,0.843,0.8,0.793,0.574,0.56,0.546,0.49,0.456,0.62,0.585,0.647,–,–
HCC-366,0.317,0.316,0.307,0.183,0.072,1.09,–,1.05,0.13,0.113,0.0867,0.128,0.0744,0.417,–,0.379,1.07,0.391
EPLC-272H,0.237,0.251,0.24,0.271,0.186,0.913,0.423,0.939,0.139,0.277,1.01,0.162,0.143,0.927,0.942,0.889,1,0.676
NCI-H1793,0.473,0.332,0.383,0.374,0.23,0.442,0.645,0.872,0.284,0.313,0.28,0.239,0.209,0.659,0.758,0.808,–,–
201T,0.616,0.636,0.546,0.477,0.469,0.965,1.02,1.04,1,0.96,0.946,0.914,0.736,0.974,1.05,0.981,1.02,0.96
NCI-H460,0.542,0.638,0.746,0.513,0.404,0.929,0.82,0.926,0.511,0.338,0.469,0.593,0.278,0.349,0.631,0.593,1.08,0.357
NCI-H1666,0.902,0.762,1.03,0.865,0.711,0.581,0.72,0.654,0.611,0.686,0.646,0.629,0.537,0.872,1.07,0.965,–,–
HOP-62,0.607,0.386,1.21,0.651,0.614,0.915,0.906,0.796,0.382,0.39,0.369,0.442,0.277,1.09,0.928,0.808,1.14,0.954
NCI-H2085,0.946,0.781,1.09,0.944,0.865,0.729,0.766,0.695,0.785,0.654,0.741,0.784,0.568,0.956,0.902,1,0.778,0.826
ABC-1,0.996,0.875,1.2,0.598,0.69,1.19,1.35,0.973,0.197,0.179,0.203,0.167,0.206,0.916,1.25,1.14,0.991,0.878
LU99A,0.335,0.361,0.408,0.365,0.398,0.878,1.03,0.916,0.249,0.302,0.252,0.239,0.175,0.518,0.52,0.423,0.985,0.486
LCLC-97TM1,0.165,0.305,0.34,0.289,0.166,0.825,1.63,0.696,0.299,0.192,0.228,0.18,0.0982,0.26,0.275,0.262,0.981,0.233
NCI-H1915,0.688,0.713,0.69,0.676,0.611,0.894,0.87,0.985,0.488,0.445,0.525,0.475,0.404,1.02,1.03,0.993,0.951,1.04
